Reference: patent US6841366B1, “Biotin biosynthesis in bacillus subtilis” (DSM IP Assets B.V., priority 1993, dated 2005)

What was measured:
B. subtilis PY79 = assay: Crystal of biotin analog on plates, growth inhibition; assay type: cell-based; conditions: for Growth inhibition around crystal, zones of clearing: EMS-mutagenized PY79, TBAB plates, overnight at 37° C.; for Zones of killing around crystal: PY79, EMS1, EMS2 on TBAB, BIOS or MIN plates, after 24 h
Text: Biotin analogs were used to select for strains that were deregulated for biotin production. Among the mutations sought were those in a potential homolog of the E. coli birA gene. However, it is expected that selection for resistance to biotin analogs can also yield strains with mutations in the operator site(s) of birA, or in genes encoding functions responsible for the transport of the analogs into the cell. Analog-resistant mutants can also contain a gene or genes that encode enzymes resistant to inhibitors including, but not limited to, feedback inhibitors. Several biotin analogs (homobiotin, α-dehydrobiotin, and 5(2-thienyl)pentanoic acid) were obtained from Nippon Roche KK (Kanagsua, Japan). Mutagenized cells of B. subtilis were plated on TBAB (Difco Tryptose Blood Agar Base, cat. no. 0232-01-9) plates containing a crystal of each biotin analog.
An additional 27 mutants were selected subsequently in similar plate screenings for their resistance to the analogs homobiotin (HB) and α-dehydrobiotin (α-DB). For this latter selection, B. subtilis PY79 cultures were subjected to mutagenesis with EMS in two independent experiments. […] Overnight cultures of PY79, EMS1, and EMS2 grown in rich medium were plated on TBAB (rich), BIOS (biotin free) or MIN (glucose-minimal) plates and a crystal of homobiotin or α-dehydrobiotin was placed on each of the plates. […] Individual colonies were picked from homobiotin plates or α-dehydrobiotin plates and restreaked on BIOS plates containing α-dehydrobiotin or homobiotin.

[1] = tested on: B. subtilis PY79 and azelaic acid resistant mutants; assay: Growth inhibition by azelaic acid, minimal agar; assay type: cell-based; conditions: addition of 1 μg/l biotin
Text: Azelaic acid, a straight chain C9 dicarboxylic acid, is a homolog of pimelic acid and is thought to be an intermediate in the conversion of oleic acid to pimelic acid (see Ohsugi and Inoue (1981) Agric. Biol. Chem. 45: 2355-2356, hereby incorporated by reference).
Seven spontaneous mutants that outgrew the background of PY79 on 2 g/l Azelaic acid were isolated. The resistance to azelaic acid appeared to be a stable trait in all but one case (see below). The seven mutants were provisionally named PA1-PA7 (PY79 Azelaic acid resistant). PA1 through PA7 were grown in test tubes in VY medium, and biotin production was assayed using E. coli indicator strains (Table 15). The mutants fell into two classes, those that yielded more biotin than PY79 (PA5, PA6) and those that were similar to PY79 (PA1, 2, 3, and 7). PA4 appeared to be either unstable or not a true mutant and was dropped from further study. Applicants also noticed that the mutants fell into two classes with respect to colony size on minimal agar with 2 g/l azelaic acid, and that these two classes corresponded to the two classes of biotin producers (Table 11). The mutants with the most biotin in the supernatant (PA5 and PA6) gave small colonies, while the biotin non-secreters, PA1, 2, 3, and 7, gave large colonies. PA1 and PA3 secreted a compound that cross-fed PY79 (i.e., reversed the azelaic acid inhibition of PY79) on minimal plates containing 2 g/l azelaic acid.

[2] = tested on: bioW-lacZ translational fusion; assay: bioW-lacZ translational fusion integrated at the bio locus, β-galactosidase liquid ONPG assay; assay type: cell-based, B. subtilis
Text: A translational lacZ fusion was constructed to confirm the activity and regulation of the putative promoter and regulatory region, and to assess the relative level of expression of the B. subtilis biotin operon in a variety of contexts. This was accomplished by inserting a 3.1 kb BamHI-BglII fragment containing a promoter-less lacZ coding region into the BamHI site of pBIO350, to give pBIO397 and pBIO398.
To test the bioW-lacZ fusion for biotin-regulated expression in B. subtilis, Bio^+ partial diploids were constructed. The cat cassette was cloned into pBIO397 using the single SmaI site located within the polylinker region downstream from the lacZ gene. One recombinant plasmid, pBIO397cat, with the cat gene oriented in the same direction as the translational fusion, was used to generate Bio^+ partial diploids. Competent cells of the prototrophic B. subtilis strain PY79 were transformed with pBIO397cat plasmid DNA selecting for Cm^r. Transformants should only arise by recombination into the chromosome. This leaves an intact copy of the bio operon, allowing activity of the lac fusion to be assessed in the absence of added biotin.
The promoter of the BamHI to PstI fragment cloned in pBIO350 is regulated by biotin. Two Cm^r Bio^+ partial diploids containing the bioW-lacZ fusion were tested for β-galactosidase activity in biotin-free medium in the presence or absence of biotin (100 μg/liter). In liquid ONPG assays, both strains were regulated specifically by biotin. The level of β-galactosidase was repressed in the presence of biotin and induced in its absence to 24 to 85-fold higher specific activity (Table 3). This strain with the bioW::lacZ fusion integrated at the bio operon has also been used to isolate new biotin analog-resistant mutants (see below) on X-gal indicator plates.

PY79 bioI::cat = assay: Growth of bioI::cat mutants on biotin-free medium with supplements; assay type: cell-based, B. subtilis; conditions: biotin 33 μg/ml
SPβ::bioW-lacZ = assay: SPβ-borne single-copy bioW-lacZ translational fusion, β-galactosidase assay; assay type: cell-based, B. subtilis
Experimental: Other strains, in addition to the lacZ fusion strain of Example IVA, can be constructed for deciphering biotin regulatory mechanisms. For example, Applicants recognized that insertion of the plasmid-borne bioW-lacZ fusion into the chromosome causes technical problems because the integrated plasmid amplifies in copy number. Thus the expression of the bioW-lacZ fusion at single copy-number and at a site distinct from the bio operon was tested by introducing the fusion into a modified SPβ specialized transducing phage (see, e.g., Zuber et al., J. Bacteriol. 169:2223-2230, 1987, hereby incorporated by reference).
Two isolates of PY79 (SPβ::bioW-lacZ) and BI421 (SPβ::bioW-lacZ) were assayed for β-galactosidase activity as described above.
Biotin regulation was also examined in two independently isolated biotin analog-resistant mutants. HB3 contains a spontaneous birA mutation and α-DB9 contains an α-dehydrobiotin resistant mutation unlinked to either bio or birA. These strains were transduced, grown, and assayed as described above, except that α-DB9 (SPβ::bioW-lacZ) was assayed during mid-exponential growth.

[3] = tested on: B. subtilis birA/azl^r strains; assay: Screen of parents and Trp+ transductants for homobiotin resistance; assay type: cell-based; set-up: key to Homobiotin resistant/sensitive: R: resistant; S: sensitive
Text: The birA mutation from either HB3 or α-DB16 was introduced into either PA3 or PA6 by a two step transduction process. First, PA3 and PA6 were made Trp^− by transduction with trpE::Tn917lac (Perkins and Youngman, (Proc. Nat'l Acad. Sci USA 83:140-144 (1986)) selecting for erythromycin resistance. The birA mutations were transduced from HB3 or α-DB16, selecting for Trp^+. Parents and Trp^+ transductants were screened for homobiotin resistance and azelaic acid resistance. PA6 was homobiotin sensitive, so double mutants could be identified among Trp^+ transductants by screening for homobiotin resistant colonies. Only about 60% of Trp^+ transductants were also homobiotin resistant (this may be due to Tn917 distortion of the map distance between birA and trpE normally 90% linkage by transduction). PA3 was resistant to homobiotin, so direct identification of double mutants was not possible. However, 60% of the transductants were double mutants as judged by increased biotin secretion, see below.

O=C(O)CCCCc1cccs1 [5(2-thienyl) pentanoic acid, 5(2-thienyl)pentanoic acid]
Growth inhibition around crystal, zones of clearing (B. subtilis PY79): inhibited the growth

O=C(O)CCCC[C@@H]1SC[C@@H]2NC(=O)N[C@@H]21 [Biotin]
Reversal of azelaic acid growth inhibition of wild-type B. subtilis [1]: reversed
Fold Increase of β-galactosidase activity, −Biotin over +Biotin (100 μg/l) ([2]; PY79(bioW-lacZ)12A, Late Log): 24 Fold
β-galactosidase activity +Biotin (100 μg/l) ([2]; PY79(bioW-lacZ)12A, Late Log (OD600 0.7-0.8)): 0.47 Miller Units
Fold Increase of β-galactosidase activity, −Biotin over +Biotin (100 μg/l) ([2]; PY79(bioW-lacZ)12A, Late Stationary): 53 Fold
β-galactosidase activity +Biotin (100 μg/l) ([2]; PY79(bioW-lacZ)12A, Late Stationary (OD600 1.4-1.6)): 0.13 Miller Units
Fold Increase of β-galactosidase activity, −Biotin over +Biotin (100 μg/l) ([2]; PY79(bioW-lacZ)12A, Stationary): 65 Fold
β-galactosidase activity +Biotin (100 μg/l) ([2]; PY79(bioW-lacZ)12A, Stationary (OD600 1.1-1.4)): 0.17 Miller Units
Fold Increase of β-galactosidase activity, −Biotin over +Biotin (100 μg/l) ([2]; PY79(bioW-lacZ)14A, Late Log): 33 Fold
β-galactosidase activity +Biotin (100 μg/l) ([2]; PY79(bioW-lacZ)14A, Late Log (OD600 0.7--0.8)): 0.64 Miller Units
Fold Increase of β-galactosidase activity, −Biotin over +Biotin (100 μg/l) ([2]; PY79(bioW-lacZ)14A, Late Stationary): 85 Fold
β-galactosidase activity +Biotin (100 μg/l) ([2]; PY79(bioW-lacZ)14A, Late Stationary (OD600 1.213-1.320)): 0.10 Miller Units
Fold Increase of β-galactosidase activity, −Biotin over +Biotin (100 μg/l) ([2]; PY79(bioW-lacZ)14A, Stationary): 82 Fold
β-galactosidase activity +Biotin (100 μg/l) ([2]; PY79(bioW-lacZ)14A, Stationary (OD600 1.1-1.4)): 0.15 Miller Units
Growth of bioI::cat insertion colonies (PY79 bioI::cat): grew to wild-type levels
Fold Increase of β-galactosidase activity, −Biotin over +Biotin (100 μg/l) (SPβ::bioW-lacZ; BI421 (SPβ::bioW-lacZ)/#1 (birA)): 1.5 Fold
β-galactosidase activity +Biotin (100 μg/l) (SPβ::bioW-lacZ; BI421 (SPβ::bioW-lacZ)/#1 (birA), OD600 1.00-0.936): 0.67 Miller Units
Fold Increase of β-galactosidase activity, −Biotin over +Biotin (100 μg/l) (SPβ::bioW-lacZ; BI421 (SPβ::bioW-lacZ)/#3 (birA)): 0.9 Fold
β-galactosidase activity +Biotin (100 μg/l) (SPβ::bioW-lacZ; BI421 (SPβ::bioW-lacZ)/#3 (birA), OD600 1.07-0.92): 0.96 Miller Units
Fold Increase of β-galactosidase activity, −Biotin over +Biotin (100 μg/l) (SPβ::bioW-lacZ; HB3 (SPβ::bioW-lacZ)/#1 (birA)): 1.3 Fold
β-galactosidase activity +Biotin (100 μg/l) (SPβ::bioW-lacZ; HB3 (SPβ::bioW-lacZ)/#1 (birA), OD600 1.068-1.076): 0.24 Miller Units
Fold Increase of β-galactosidase activity, −Biotin over +Biotin (100 μg/l) (SPβ::bioW-lacZ; HB3 (SPβ::bioW-lacZ)/#3 (birA)): 0.8 Fold
β-galactosidase activity +Biotin (100 μg/l) (SPβ::bioW-lacZ; HB3 (SPβ::bioW-lacZ)/#3 (birA), OD600 1.213-1.320): 0.18 Miller Units
β-galactosidase repressed in the presence of biotin, induced in the absence of biotin (SPβ::bioW-lacZ; PY79 (SPβ::bioW-lacZ)): 9-15 fold
Fold Increase of β-galactosidase activity, −Biotin over +Biotin (100 μg/l) (SPβ::bioW-lacZ; PY79 (SPβ::bioW-lacZ)/#1): 15 Fold
β-galactosidase activity +Biotin (100 μg/l) (SPβ::bioW-lacZ; PY79 (SPβ::bioW-lacZ)/#1, OD600 1.04-1.08): 0.04 Miller Units
Fold Increase of β-galactosidase activity, −Biotin over +Biotin (100 μg/l) (SPβ::bioW-lacZ; PY79 (SPβ::bioW-lacZ)/#3): 9 Fold
β-galactosidase activity +Biotin (100 μg/l) (SPβ::bioW-lacZ; PY79 (SPβ::bioW-lacZ)/#3, OD600 0.988-0.960): 0.06 Miller Units
Fold Increase of β-galactosidase activity, −Biotin over +Biotin (100 μg/l) (SPβ::bioW-lacZ; α-D89 (SPβ::bioW-lacZ)/#1): 9.2 Fold
β-galactosidase activity +Biotin (100 μg/l) (SPβ::bioW-lacZ; α-D89 (SPβ::bioW-lacZ)/#1, OD600 0.892-0.528, one measurement): 0.18 Miller Units
Fold Increase of β-galactosidase activity, −Biotin over +Biotin (100 μg/l) (SPβ::bioW-lacZ; α-D89 (SPβ::bioW-lacZ)/#3): 12.3 Fold
β-galactosidase activity +Biotin (100 μg/l) (SPβ::bioW-lacZ; α-D89 (SPβ::bioW-lacZ)/#3, OD600 1.344-1.200): 0.11 Miller Units

O=C(O)CCCCC[C@@H]1SC[C@@H]2NC(=O)N[C@@H]21 [Homobiotin, homobiotin]
Homobiotin resistant/sensitive ([3]; parent PA3, birA donor HB3, isolate 1): R
Homobiotin resistant/sensitive ([3]; parent PA3, birA donor HB3, isolate 2): R
Homobiotin resistant/sensitive ([3]; parent PA3, birA donor α-DB16, isolate 1): R
Homobiotin resistant/sensitive ([3]; parent PA6, birA donor HB3, isolate 2): R
Homobiotin resistant/sensitive ([3]; parent PA6, birA donor HB3, isolate 6): R
Homobiotin resistant/sensitive ([3]; parent PA6, birA donor α-DB16, isolate 8): R
Homobiotin resistant/sensitive ([3]; parent PA6, birA donor α-DB16, isolate 14): R
Homobiotin resistant/sensitive ([3]; strain HB3): R
Homobiotin resistance of PA3 ([3]; strain PA3): resistant
Homobiotin resistant/sensitive ([3]; strain PA3): R
Homobiotin resistant/sensitive ([3]; strain PA6): S
Homobiotin sensitivity of PA6 ([3]; strain PA6): sensitive
Homobiotin resistant/sensitive ([3]; strain PY79): S
Homobiotin resistant/sensitive ([3]; strain α-DB16): R
Zones of killing around crystal (B. subtilis PY79): zones of killing were observed

O=C(O)/C=C/CCC1SCC2NC(=O)NC21 (stereo not drawn) [α-dehydrobiotin]
Growth inhibition around crystal, zones of clearing (B. subtilis PY79): inhibited the growth
Zones of killing around crystal (B. subtilis PY79): zones of killing were observed
